# Laboratory results reported in patent publication US8865623B2, “Herbicidally active cyclic diones and derivatives thereof, processes for their preparation, compositions, and method of controlling weeds” (Syngenta Limited, priority 2009, dated 2014).
# How the values were obtained:
# Format in all cases: in vivo
# [1] = system: Alopecurus myosuroides (ALOMY); assay: Pre-emergence herbicidal activity, glasshouse pot test; details: Alopecurus myosuroides, 312 h, Rate 250 g/ha, evaluated after 13 days, read-out: Pre-emergence activity ALOMY (100=total damage to plant; 0=no damage to plant)
# Protocol: (§1) Seeds of a variety of test species were sown in standard soil in pots. After cultivation for one day (pre-emergence) or after 8 days cultivation (post-emergence) under controlled conditions in a glasshouse (at 24/16° C., day/night; 14 hours light; 65% humidity), the plants were sprayed with an aqueous spray solution derived from the formulation of the technical active ingredient in acetone/water (50:50) solution containing 0.5% Tween 20 (polyoxyethelyene sorbitan monolaurate, CAS RN 9005-64-5). The test plants were then grown in a glasshouse under controlled conditions in a glasshouse (at 24/16° C., day/night; 14 hours light; 65% humidity) and watered twice daily. After 13 days for pre and post-emergence, the test was evaluated (100=total damage to plant; 0=no damage to plant).
# (§2) Lolium perenne (LOLPE), Alopecurus myosuroides (ALOMY), Echinochloa crus-galli (ECHCG), and Avena fatua (AVEFA).
# [2] = system: Avena fatua (AVEFA); assay: as above; details: Avena fatua, 312 h, Rate 250 g/ha, evaluated after 13 days, read-out: Pre-emergence activity AVEFA (100=total damage to plant; 0=no damage to plant)
# Protocol: as §1, §2
# [3] = system: Echinochloa crus-galli (ECHCG); assay: as above; details: Echinochloa crus-galli, 312 h, Rate 250 g/ha, evaluated after 13 days, read-out: Pre-emergence activity ECHCG (100=total damage to plant; 0=no damage to plant)
# Protocol: as §1, §2
# [4] = system: Lolium perenne (LOLPE); assay: as above; details: Lolium perenne, 312 h, Rate 250 g/ha, evaluated after 13 days, read-out: Pre-emergence activity LOLPE (100=total damage to plant; 0=no damage to plant)
# Protocol: as §1, §2
# [5] = system: Alopecurus myosuroides (ALOMY); assay: Post-emergence herbicidal activity, glasshouse pot test; details: Alopecurus myosuroides, 312 h, rate 250 g/ha, evaluated after 13 days, read-out: Post-emergence activity ALOMY (100=total damage to plant; 0=no damage to plant)
# Protocol: as §1, §2
# [6] = system: Avena fatua (AVEFA); assay: as above; details: Avena fatua, 312 h, rate 250 g/ha, evaluated after 13 days, read-out: Post-emergence activity AVEFA (100=total damage to plant; 0=no damage to plant)
# Protocol: as §1, §2
# [7] = system: Echinochloa crus-galli (ECHCG); assay: as above; details: Echinochloa crus-galli, 312 h, rate 250 g/ha, evaluated after 13 days, read-out: Post-emergence activity ECHCG (100=total damage to plant; 0=no damage to plant)
# Protocol: as §1, §2
# [8] = system: Lolium perenne (LOLPE); assay: as above; details: Lolium perenne, 312 h, rate 250 g/ha, evaluated after 13 days, read-out: Post-emergence activity LOLPE (100=total damage to plant; 0=no damage to plant)
# Protocol: as §1, §2
Structure (SMILES),pest or weed control at 250 g/ha ([1]; pre-emergence spray) [%],pest or weed control at 250 g/ha ([2]; pre-emergence spray) [%],pest or weed control at 250 g/ha ([3]; pre-emergence spray) [%],pest or weed control at 250 g/ha ([4]; pre-emergence spray) [%],pest or weed control at 250 g/ha ([5]; glasshouse) [%],pest or weed control at 250 g/ha ([6]; glasshouse) [%],pest or weed control at 250 g/ha ([7]; glasshouse) [%],pest or weed control at 250 g/ha ([8]; glasshouse) [%],pest or weed control at 250 g/ha ([1]; pre-emergence) [%],pest or weed control at 250 g/ha ([2]; pre-emergence) [%],pest or weed control at 250 g/ha ([3]; pre-emergence) [%],pest or weed control at 250 g/ha ([4]; pre-emergence) [%],pest or weed control at 250 g/ha [5] [%],pest or weed control at 250 g/ha [6] [%],pest or weed control at 250 g/ha [7] [%],pest or weed control at 250 g/ha [8] [%]
CCc1ccc(Oc2ccc3ccccc3n2)cc1C1=C(O)C(C)(C)OC(C)(C)C1=O [Example A-223],80,50,100,90,100,60,100,90,,,,,,,,
CCc1ccc(Oc2ncc(Cl)cc2C(F)(F)F)cc1C1=C(O)C(C)(C)OC(C)(C)C1=O [Example A-143],60,40,100,70,100,100,100,100,,,,,,,,
CCc1ccc(Oc2ccc(Cl)cc2F)cc1C1=C(O)C(C)(C)OC(C)(C)C1=O [Example A-15],100,60,100,100,90,70,100,100,,,,,,,,
CCc1ccc(Oc2ncnc3sccc23)cc1C1=C(O)C(C)(C)OC(C)(C)C1=O [Example A-126],0,0,10,0,10,20,50,10,,,,,,,,
CC1(C)OC(C)(C)C(O)=C(c2cc(Oc3ccc(Cl)cc3F)ccc2C2CC2)C1=O [Example A-348],,,,,,,,,60,10,100,100,100,60,100,90
CC1(C)OC(C)(C)C(O)=C(c2cc(Oc3ccc(Cl)c(F)c3)ccc2C2CC2)C1=O [Example A-347],,,,,,,,,70,10,100,100,90,50,100,100
CCc1ccc(Oc2ccc(F)cc2)cc1C1=C(O)C(C)(C)OC(C)(C)C1=O [Example A-22],20,10,80,60,20,30,100,30,,,,,,,,
CCc1ccc(Oc2ccc(C(F)(F)F)cc2Cl)cc1C1=C(O)C(C)(C)OC(C)(C)C1=O [Example A-99],60,30,100,100,80,90,100,80,,,,,,,,
CCc1ccc(Oc2cnc3ccc(Br)cc3n2)cc1C1=C(O)C(C)(C)OC(C)(C)C1=O [Example A-104],90,30,100,100,90,80,100,90,,,,,,,,
CCc1ccc(Oc2ccc(Br)cc2F)cc1C1=C(O)CC(C)(C)CC1=O [Example A-49],90,40,100,100,90,70,100,90,,,,,,,,
CCc1ccc(Oc2ccc(Cl)c(F)c2)cc1C1=C(O)CCCC1=O [Example A-68],30,30,100,70,60,40,100,60,,,,,,,,
CC1(C)OC(C)(C)C(O)=C(c2cc(Oc3ccc(Cl)cc3Cl)ccc2C2CC2)C1=O [Example A-262],30,0,70,70,80,50,90,60,,,,,,,,
CCc1ccc(Oc2ccc(Cl)c(F)c2)cc1C1=C(O)C(C)(C)CCC1=O [Example A-52],40,20,60,70,30,40,90,50,,,,,,,,
CCc1ccc(Oc2ccc([N+](=O)[O-])c(Cl)c2)cc1C1=C(O)C(C)(C)OC(C)(C)C1=O [Example A-67],90,90,100,100,100,80,100,90,,,,,,,,
CCc1ccc(Oc2cc(C(F)(F)F)cc(Cl)n2)cc1C1=C(O)C(C)(C)OC(C)(C)C1=O [Example A-146],10,0,10,0,30,30,70,20,,,,,,,,
CCc1ccc(Oc2ccc(C#N)c(Cl)c2)cc1C1=C(O)C(C)(C)OC(C)(C)C1=O [Example A-75],100,80,100,100,100,90,100,100,,,,,,,,
CCc1ccc(Oc2ccc(C(F)(F)F)cc2[N+](=O)[O-])cc1C1=C(O)C(C)(C)OC(C)(C)C1=O [Example A-203],20,30,50,90,90,100,90,90,,,,,,,,
CCc1ccc(Oc2ccc([N+](=O)[O-])c(C#N)c2)cc1C1=C(O)C(C)(C)OC(C)(C)C1=O [Example A-196],0,0,0,0,0,0,20,10,,,,,,,,
